The source of these data is patent US12447153B2, “HER2 mutation inhibitors” (Array BioPharma Inc., priority 2021, dated 2025).

SMILES strings stand for the structures. Where only a bound is given, the exact number is not on record here.

The target of data set [1] is ErbB2 with Exon 20 YVMA insertion (HER2-YVMA) (Homo sapiens (Human), UniProt P04626, INS775YVMA). The data set is described as follows: Cellular Phosphorylation Assay, Assay 4 (constitutive ErbB2 phosphorylation, NIH 3T3 cells). In kind it is cell-based.
The target in data set [2] is BCRP (Homo sapiens (Human), UniProt Q9UNQ0). The data set is described as follows: BCRP MDCKII efflux assay (Assay 7). In kind it is in vitro ADME. The following applies: dog; efflux ratio Papp(B-A)/Papp(A-B), BCRP MDCKII cells; read-out: Assay 7 Pe Ratio. How it is done: Assay conditions included with and without the BCRP-specific inhibitor, KO143, at a concentration of 0.3 μM to ascertain the contribution of BCRP to the efflux value of the test compound.
Final organic concentration in the assay was 1%.

In data set [3] the target is ErbB2 WT (Homo sapiens (Human), UniProt P04626). Description: ErbB Enzyme Assay (HTRF KinEASE-TK), Assay 2. In kind it is biochemical. (In general: Time-resolved FRET reads energy transfer from a long-lived donor to a nearby acceptor.)
Data set [4] addresses MDR1 (P-gp) (Homo sapiens (Human), UniProt P08183). The data set is described as follows: in vitro. The following applies: pig, LLC-PK1.
Method: Both LLC-PK1 and MDR1 transfected LLC-PK1 cells were cultured and plated according to manufacturer's recommendations with the exception that the passage media contained only 2% fetal bovine serum so as to extend passage time out to seven days.
Both positive and negative controls were used to assess functionality of P-gp or BCRP efflux in the assays. Stock solutions for assay controls and the test article were prepared in DMSO for final test concentrations of 10 μM and 1 μM, respectively. Final organic concentration in the assay was 1%. All dosing solutions contained 10 μM lucifer yellow to monitor LLC PK1 or MDCKII cell monolayer integrity.
For the apical to basolateral determination (A to B), 75 μL of the test article in transport buffer were added to the apical side of the individual transwells and 250 μL of basolateral media, without compound or lucifer yellow, were added to each well. For the basolateral to apical determination (B to A), 250 μL of test article in transport buffer were added to each well and 75 μL transport buffer, without compound or lucifer yellow, were added to each transwell. All tests were performed in triplicate, and each compound was tested for both apical to basolateral and basolateral to apical transport. The plates were incubated for 2 hours on a Lab-Line Instruments Titer Orbital Shaker (VWR, West Chester, PA) at 50 rpm and 37° C. with 5% CO2. All culture plates were removed from the incubator, 50 μL of media were removed from the apical and basolateral portion of each well, and added to 150 μL of 1 μM labetalol in 2:1 acetonitrile (ACN): H2O, v/v.
The plates were read using a Molecular Devices (Sunnyvale, CA) Gemini Fluorometer to evaluate the lucifer yellow concentrations at excitation/emission wavelengths of 425/535 nm. These values were accepted when found to be below 2% for apical to basolateral and 5% basolateral to apical flux across the MDR1-transfected LLC-PK1 or BCRP-transfected MDCKII cell monolayers. The plates were sealed, and the contents of each well analyzed by LC MS/MS. The compound concentrations were determined from the ratio of the peak areas of the compound to the internal standard (labetalol) in comparison to the dosing solution.
The LC-MS/MS system was comprised of an HTS-PAL autosampler (Leap Technologies, Carrboro, NC), an HP1200 HPLC (Agilent, Palo Alto, CA), and a MDS Sciex 4000 Q Trap system (Applied Biosystems, Foster City, CA). […] The total run time, including re-equilibration, for a single injection was 1.2 minutes. Mass spectrometric detection of the analytes was accomplished using the ion spray positive mode. Analyte responses were measured by multiple reaction monitoring (MRM) of transitions unique to each compound (the protonated precursor ion and selected product ions for each test article and m/z 329 to m/z 162 for labetalol, the internal standard).
An efflux ratio is calculated from the mean apical to basolateral (A-B) Papp data and basolateral to apical (B-A) Papp data: Efflux ratio=Papp(B−A)/Papp(A−B)
Data set [5] addresses EGFR (Homo sapiens (Human), UniProt P00533). The data set is described as follows: ErbB Enzyme Assay (HTRF KinEASE-TK), Assay 3. In kind it is biochemical.
Data set [6] has as its target EGFR wild type (EGFR WT) (Homo sapiens (Human), UniProt P00533). Description: Cellular Phosphorylation Assay, Assay 5 (EGF-stimulated EGFR phosphorylation, NIH 3T3 cells). In kind it is cell-based.
The mark [7] stands for this setting: cellular ErbB2 YVMA phosphorylation.
Where [8] appears, read: cellular EGFR WT phosphorylation, EGF-stimulated.
Setting [9] is: EGF-stimulated EGFR WT phosphorylation.

Sequence of BCRP (Q9UNQ0 whole entry): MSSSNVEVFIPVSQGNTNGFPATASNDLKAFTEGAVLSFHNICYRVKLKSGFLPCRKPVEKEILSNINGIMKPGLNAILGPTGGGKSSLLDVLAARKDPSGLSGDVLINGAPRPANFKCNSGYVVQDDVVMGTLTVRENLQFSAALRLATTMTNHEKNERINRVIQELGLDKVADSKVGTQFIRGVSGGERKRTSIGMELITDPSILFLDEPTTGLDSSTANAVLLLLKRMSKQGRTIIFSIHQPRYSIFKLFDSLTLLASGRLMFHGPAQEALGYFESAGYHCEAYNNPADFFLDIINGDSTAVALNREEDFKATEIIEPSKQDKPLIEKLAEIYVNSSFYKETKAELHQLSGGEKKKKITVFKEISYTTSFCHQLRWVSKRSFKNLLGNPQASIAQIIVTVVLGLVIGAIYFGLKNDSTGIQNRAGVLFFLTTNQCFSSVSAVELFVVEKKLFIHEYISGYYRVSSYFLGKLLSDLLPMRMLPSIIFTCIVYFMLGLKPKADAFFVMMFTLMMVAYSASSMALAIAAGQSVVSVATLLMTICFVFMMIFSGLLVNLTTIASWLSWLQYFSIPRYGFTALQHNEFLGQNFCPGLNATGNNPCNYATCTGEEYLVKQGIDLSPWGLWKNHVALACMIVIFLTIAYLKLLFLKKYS
Sequence of EGFR (P00533 25-1210): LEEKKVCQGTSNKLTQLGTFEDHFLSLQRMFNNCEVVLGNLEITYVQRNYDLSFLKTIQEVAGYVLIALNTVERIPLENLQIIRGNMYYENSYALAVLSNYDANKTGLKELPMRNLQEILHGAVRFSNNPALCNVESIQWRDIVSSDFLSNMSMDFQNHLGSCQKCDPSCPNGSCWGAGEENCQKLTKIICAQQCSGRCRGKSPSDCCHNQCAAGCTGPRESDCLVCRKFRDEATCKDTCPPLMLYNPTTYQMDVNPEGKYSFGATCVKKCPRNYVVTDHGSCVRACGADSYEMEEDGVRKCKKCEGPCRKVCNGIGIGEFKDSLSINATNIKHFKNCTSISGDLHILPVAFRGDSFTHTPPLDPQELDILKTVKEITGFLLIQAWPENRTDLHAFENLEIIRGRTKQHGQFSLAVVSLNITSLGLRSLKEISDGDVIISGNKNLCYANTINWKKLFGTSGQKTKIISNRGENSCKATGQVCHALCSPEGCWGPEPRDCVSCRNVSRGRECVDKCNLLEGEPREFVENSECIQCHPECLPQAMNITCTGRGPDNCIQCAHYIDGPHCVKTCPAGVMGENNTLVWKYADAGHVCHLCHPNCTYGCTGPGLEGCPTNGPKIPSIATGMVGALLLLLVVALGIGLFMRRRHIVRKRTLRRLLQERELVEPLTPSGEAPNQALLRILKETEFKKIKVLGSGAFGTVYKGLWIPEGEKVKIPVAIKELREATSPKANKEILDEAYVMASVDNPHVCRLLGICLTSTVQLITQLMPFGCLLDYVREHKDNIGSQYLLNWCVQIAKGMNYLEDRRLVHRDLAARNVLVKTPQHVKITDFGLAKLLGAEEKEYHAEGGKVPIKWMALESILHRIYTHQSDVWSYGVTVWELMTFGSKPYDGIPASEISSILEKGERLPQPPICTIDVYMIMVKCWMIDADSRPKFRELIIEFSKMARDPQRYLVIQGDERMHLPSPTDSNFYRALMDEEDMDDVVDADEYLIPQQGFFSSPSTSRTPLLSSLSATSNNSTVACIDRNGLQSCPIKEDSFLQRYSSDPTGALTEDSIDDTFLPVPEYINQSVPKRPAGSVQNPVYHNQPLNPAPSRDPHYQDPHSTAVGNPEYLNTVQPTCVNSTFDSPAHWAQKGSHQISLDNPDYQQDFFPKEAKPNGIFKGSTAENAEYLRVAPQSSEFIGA
Sequence of EGFR wild type (EGFR WT) (P00533 25-1210): as above
Sequence of ErbB2 WT (P04626 23-1255): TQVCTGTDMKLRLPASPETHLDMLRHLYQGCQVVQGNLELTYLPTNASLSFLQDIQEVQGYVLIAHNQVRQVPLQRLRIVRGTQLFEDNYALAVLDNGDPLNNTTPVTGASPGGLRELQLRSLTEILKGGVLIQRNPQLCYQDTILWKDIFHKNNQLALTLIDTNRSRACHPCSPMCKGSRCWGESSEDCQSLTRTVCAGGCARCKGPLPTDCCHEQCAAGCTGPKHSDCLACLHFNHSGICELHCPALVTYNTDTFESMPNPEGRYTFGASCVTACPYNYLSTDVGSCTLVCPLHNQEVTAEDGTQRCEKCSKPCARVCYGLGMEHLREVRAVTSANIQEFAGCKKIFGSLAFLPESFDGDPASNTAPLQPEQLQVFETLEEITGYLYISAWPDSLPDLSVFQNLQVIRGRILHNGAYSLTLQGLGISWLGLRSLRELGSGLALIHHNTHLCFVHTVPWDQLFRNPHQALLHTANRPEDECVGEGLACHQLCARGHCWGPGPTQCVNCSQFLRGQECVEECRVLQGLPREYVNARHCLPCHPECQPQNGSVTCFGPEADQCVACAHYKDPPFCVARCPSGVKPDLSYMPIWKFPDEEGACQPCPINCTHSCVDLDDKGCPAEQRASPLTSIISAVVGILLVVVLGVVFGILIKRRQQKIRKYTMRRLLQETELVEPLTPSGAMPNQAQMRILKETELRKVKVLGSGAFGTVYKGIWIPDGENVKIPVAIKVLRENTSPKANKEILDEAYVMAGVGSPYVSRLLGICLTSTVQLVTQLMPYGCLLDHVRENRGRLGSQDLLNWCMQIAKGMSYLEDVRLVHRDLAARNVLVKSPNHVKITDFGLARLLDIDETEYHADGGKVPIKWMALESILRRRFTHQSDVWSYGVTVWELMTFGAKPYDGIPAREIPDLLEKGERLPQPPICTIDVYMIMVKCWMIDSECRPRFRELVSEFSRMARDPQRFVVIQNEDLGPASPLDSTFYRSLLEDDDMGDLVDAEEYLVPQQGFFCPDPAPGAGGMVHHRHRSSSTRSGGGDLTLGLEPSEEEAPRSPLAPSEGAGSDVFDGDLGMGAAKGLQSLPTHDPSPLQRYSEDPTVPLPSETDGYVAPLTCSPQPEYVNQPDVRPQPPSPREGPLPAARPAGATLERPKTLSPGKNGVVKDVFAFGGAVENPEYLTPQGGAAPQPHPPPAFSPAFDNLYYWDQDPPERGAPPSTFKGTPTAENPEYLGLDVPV

Take `C=CC(=O)N1CCN(c2ccc3ncnc(Nc4ccc(Oc5ccn6ncnc6c5)c(Cl)c4F)c3n2)C[C@@H]1C1CC1` [Example 287]: the IC50 (usually the concentration that gives 50% inhibition) in data set [1] (setting [7]) was 9.8 nM; in data set [3] (ErbB2 WT enzyme assay) it was 12.4 nM; in data set [5] (EGFR enzyme assay), 1100 nM; in data set [6] (setting [8]), 1960 nM. The efflux ratio at 2 h, 1 µM in data set [2] came out at 1.7; in data set [4] it was 1.
As for `C=CC(=O)N1CCN(c2ccc3ncnc(Nc4ccc(Oc5cnc6c(c5)ncn6C)c(C)c4F)c3n2)C[C@H]1C` [Example 433], the IC50 in data set [1] (setting [7]) worked out at 9.4 nM; in data set [3] (ErbB2 WT enzyme assay) it was 101 nM; in data set [5] (EGFR enzyme assay), 4830 nM; in data set [6] (setting [8]), 2890 nM. Besides, the efflux ratio at 2 h, 1 µM was determined as 3.8 in data set [2] and 1.1 in data set [4].
Regarding `C=CC(=O)N1CCN(c2ccc3ncnc(Nc4cc(C)c(Oc5ccn6ncnc6c5)cc4F)c3n2)C[C@H]1CC` [Example 164, (R)-1-(4-(4-((4-([1,2,4]triazolo[1,5-a]pyridin-7-yloxy)-2-fluoro-5-methylphenyl)amino)pyrido[3,2-d]pyrimidin-6-yl)-2-ethylpiperazin-1-yl)prop-2-en-1-one], the IC50 is 14.7 nM in data set [1] (ErbB2 YVMA phosphorylation), 45.8 nM in data set [3] (ErbB2 WT enzyme), no less than 10000 nM in data set [5] (EGFR enzyme) and 665 nM in data set [6] (setting [9]). Further, the efflux ratio at 2 h, 1 µM in data set [2] was 2.5; in data set [4], 1.1.
For `C=CC(=O)N1CCN(c2ccc3ncnc(Nc4cc(C)c(Oc5cnc6c(c5)ncn6C)cc4F)c3n2)C[C@@H]1C1CC1` [Example 355], the IC50 in data set [1] (setting [7]) was 28.5 nM; in data set [3] (ErbB2 WT enzyme assay) it was 158 nM; in data set [5] (EGFR enzyme assay), no less than 10000 nM; in data set [6] (setting [8]), no less than 5000 nM. In addition, the figures for the efflux ratio at 2 h, 1 µM in data set [2] and in data set [4] were 7.2 and 1.5, respectively.
With `C=CC(=O)N1CCC(c2ccc3ncnc(Nc4ccc(Oc5ccc6c(c5)ncn6C)c(C)c4F)c3n2)CC1(C)C` (stereo not drawn) [Example 127, 1-(4-(4-((2-fluoro-3-methyl-4-((1-methyl-1H-benzo[d]imidazol-5-yl)oxy)phenyl)amino)pyrido[3,2-d]pyrimidin-6-yl)-2,2-dimethylpiperidin-1-yl)prop-2-en-1-one], the IC50 in data set [1] (ErbB2 YVMA phosphorylation) was 32.7 nM; in data set [3] (ErbB2 WT enzyme), 271 nM; in data set [5] (EGFR enzyme) it was no less than 10000 nM; in data set [6] (setting [9]), no less than 5000 nM. For the same molecule, the efflux ratio at 2 h, 1 µM in data set [2] came to 1.6; in data set [4], 1.2.
For `C=CC(=O)N1CCCC(c2ccc3ncnc(Nc4ccc(Oc5cnc6c(c5)ncn6C)c(C)c4F)c3n2)CC1` (stereo not drawn) [Example 413], the IC50 in data set [1] (setting [7]) is 24.6 nM; in data set [3] (ErbB2 WT enzyme assay) it was 78.6 nM; in data set [5] (EGFR enzyme assay), 2220 nM; in data set [6] (setting [8]), no less than 5000 nM. Also, the efflux ratio at 2 h, 1 µM in data set [2] was found to be 2; in data set [4], 1.
Consider `Cc1c(Oc2ccn3ncnc3c2)ccc(Nc2ncnc3ccc(N4CCN(C#N)C(C)(C)C4)nc23)c1F` [Example 245, 4-(4-((4-([1,2,4]triazolo[1,5-a]pyridin-7-yloxy)-2-fluoro-3-methylphenyl)amino)pyrido[3,2-d]pyrimidin-6-yl)-2,2-dimethylpiperazine-1-carbonitrile], for which the IC50 in data set [1] (ErbB2 YVMA phosphorylation) is 177 nM; in data set [3] (ErbB2 WT enzyme), 83.1 nM; in data set [5] (EGFR enzyme), no less than 10000 nM; in data set [6] (setting [9]) it was no less than 5000 nM. Moreover, the efflux ratio at 2 h, 1 µM in data set [2] amounted to 4.2; in data set [4] it was 1.2.
With `C=CC(=O)N1C[C@H]2C[C@@H]1[C@H](c1ccc3ncnc(Nc4ccc(Oc5ccn6ncnc6c5)c(Cl)c4F)c3n1)C2` [Example 406], the IC50 in data set [1] (setting [7]) was determined as 9.3 nM; in data set [3] (ErbB2 WT enzyme assay) it was 8.7 nM; in data set [5] (EGFR enzyme assay) it was 336 nM; in data set [6] (setting [8]), 737 nM. Moreover, the efflux ratio at 2 h, 1 µM is 4.3 in data set [2] and 0.9 in data set [4].
Regarding `C=CC(=O)N1CCC[C@@H](c2ccc3ncnc(Nc4ccc(Oc5ccc6c(c5)ncn6C)c(C)c4F)c3n2)CC1` (racemic) [Example 147, rac-(R)-1-(4-(4-((2-fluoro-3-methy-4-((1-methyl-1H-benzo[d]imidazol-5-yl)oxy)phenyl)amino)pyrido[3,2-d]pyrimidin-6-yl)azepan-1-yl)prop-2-en-1-one], the IC50 in data set [1] (ErbB2 YVMA phosphorylation) was found to be 23 nM; in data set [3] (ErbB2 WT enzyme), 18.6 nM; in data set [5] (EGFR enzyme) it was 782 nM; in data set [6] (setting [9]) it was 2590 nM. In addition, the efflux ratio at 2 h, 1 µM turned out to be 2.3 in data set [2] and 2.9 in data set [4].
Turning to `C=CC(=O)N1[C@@H]2CC[C@H]1C(c1ccc3ncnc(Nc4ccc(Oc5ccn6ncnc6c5)c(C)c4)c3n1)C2` (single isomer, unassigned) [Example 232], the IC50 was 31.9 nM in data set [1] (ErbB2 YVMA phosphorylation), 10.5 nM in data set [3] (ErbB2 WT enzyme), 203 nM in data set [5] (EGFR enzyme) and no less than 5000 nM in data set [6] (setting [9]). The efflux ratio at 2 h, 1 µM was 2.6 in data set [2] and 0.8 in data set [4].
As for `C=CC(=O)N1[C@@H]2CC[C@H]1[C@H](c1ccc3ncnc(Nc4ccc(Oc5ccn6ncnc6c5)c(C)c4F)c3n1)C2` (single isomer, unassigned) [Example 228], the IC50 in data set [1] (ErbB2 YVMA phosphorylation) was 33.6 nM; in data set [3] (ErbB2 WT enzyme) it was 130 nM; in data set [5] (EGFR enzyme), 4550 nM; in data set [6] (setting [9]), no less than 5000 nM. Besides, the efflux ratio at 2 h, 1 µM is 3.3 in data set [2] and 0.8 in data set [4].
With `C=CC(=O)N1CCCC(c2ccc3ncnc(Nc4ccc(Oc5cnc6c(c5)ncn6C)c(C)c4)c3n2)CC1` (stereo not drawn) [Example 403], the IC50 was 13.4 nM in data set [1] (setting [7]), 61.3 nM in data set [3] (ErbB2 WT enzyme assay), 1290 nM in data set [5] (EGFR enzyme assay) and no less than 5000 nM in data set [6] (setting [8]). For the same molecule, the figures for the efflux ratio at 2 h, 1 µM in data set [2] and in data set [4] were 4 and 2, respectively.
With `C=CC(=O)N1CCCC(c2ccc3ncnc(Nc4ccc(Oc5ccc6c(c5)ncn6C)c(C)c4)c3n2)CC1` (stereo not drawn) [Example 121, 1-(4-(4-((3-methyl-4-((1-methyl-1H-benzo[d]imidazol-5-yl)oxy)phenyl)amino)pyrido[3,2-d]pyrimidin-6-yl)azepan-1-yl)prop-2-en-1-one], the half-maximal inhibitory concentration (IC50) in data set [1] (ErbB2 YVMA phosphorylation) was determined as 9.1 nM; in data set [3] (ErbB2 WT enzyme), 30.8 nM; in data set [5] (EGFR enzyme), 5570 nM; in data set [6] (setting [9]), 4580 nM. Besides, the efflux ratio at 2 h, 1 µM in data set [2] was 4; in data set [4], 1.9.
In the case of `C=CC(=O)N1CC2CC(C1)N2c1ccc2ncnc(Nc3cc(C)c(Oc4ccc5c(c4)ncn5C)cc3F)c2n1` [Example 334], the IC50 was 21.8 nM in data set [1] (setting [7]), 55.6 nM in data set [3] (ErbB2 WT enzyme assay), 430 nM in data set [5] (EGFR enzyme assay) and 1080 nM in data set [6] (setting [8]). For the same molecule, the efflux ratio at 2 h, 1 µM in data set [2] was 1.9; in data set [4] it was 3.7.
For the molecule `C=CC(=O)N1C[C@@H]2C[C@H]1C[C@H]2c1ccc2ncnc(Nc3ccc(Oc4ccn5ncnc5c4)c(C)c3F)c2n1` (racemic) [Example 199, rac-1-((1 S,4R,5R)-5-(4-((4-([1,2,4]triazolo[1,5-a]pyridin-7-yloxy)-2-fluoro-3-methylphenyl)amino)pyrido[3,2-d]pyrimidin-6-yl)-2-azabicyclo[2.2.1]heptan-2-yl)prop-2-en-1-one], the IC50 in data set [1] (ErbB2 YVMA phosphorylation) is 22.3 nM; in data set [3] (ErbB2 WT enzyme), 17.4 nM; in data set [5] (EGFR enzyme), 483 nM; in data set [6] (setting [9]), 942 nM. The values for the efflux ratio at 2 h, 1 µM in data set [2] and in data set [4] were 3.2 and 0.6, respectively.
